Values of other authors, collected in EP1151755B1, “Pharmaceutical compositions comprising cyclosporin as active ingredient” (Panacea Biotec Limited, priority 2000, dated 2001).

System: normal epithelial tissue and Peyer's patch tissue of guinea pigs
Details: in vitro; compared to the commercially available drinking solution

factor by which absorption of Cyclosporine was raised: 5-6
Substance: Choleic acid
